Data taken from patent US6515122B1, “Tetracyclic benzimidazole derivatives and combinatorial libraries thereof” (Lion Bioscience AG, priority 1999, dated 2003).

system: Streptococcus pyogenes (ATCC# 97-03 14289); assay: Anti-microbial screen (growth inhibition, OD 570 nm); type: cell-based; conditions: ATCC97, compounds at 170 μg/ml, Todd Hewitt Broth, read at 4 hrs
Experimental: Streptococcus pyogenes (ATCC# 97-03 14289) were grown in Todd Hewitt Broth (THB) (Difco Laboratories #0492-17-6) overnight until they reached an optical density of (OD=0.636@ 570 nm) by reading 0.1 ml in a 96 well microtiter plate in a Molecular Devices Thermomax. This preparation was kept frozen as stocks in 30% v/v glycerol in 1.5 ml aliquots at −70 C° until used. Prior to screening, 1.5 ml aliquots were thawed and diluted into 50 ml THB. 200 μl of this dilution was added to 92 wells of microtiter plate. To three wells THB (200 μl) was added to serve as a blank and a sterility control. Test compounds in DMSO and appropriate concentrations of DMSO were added to Growth/Solvent Controls at 0 time. Plates were read at 0 time at 570 nm in the Molecular Devices plate reader to obtain compounds correction factors for insoluble or colored compounds. Plates were read again at 4 hrs.
Compounds were assayed at a concentration of 170 μg/ml. Percent inhibition for each compound was calculated using the following formulae:
Color correct=(O.D. 0 hr−Blank 0 hr)−(Solvent Control 0 hr−Blank 0 hr)
% Inhibition=100−(O.D. test compound 4 hr−Blank 4 hr−color correct) divided by (O.D. growth/solvent control 4 hr−Blank 4 hr)

| Structure (SMILES) | inhibition at 170 µg/mL [%] |
| --- | --- |
| CCN(CC)c1ccc2c(c1)-c1nc3ccccc3n1C(CCCNC(=N)N)C(=O)N2 (stereo not shown) [6000#60879] | 97.4 |
| CN(C)CCN(C)c1ccc2c(c1)-c1nc3cc(C(F)(F)F)ccc3n1[C@@H](Cc1c[nH]c3ccccc13)C(=O)N2 [6000#52815] | 98.8 |
| CN(C)CCCNc1ccc2c(c1)-c1nc3ccc(Cl)cc3n1[C@H](Cc1ccccc1)C(=O)N2 [6000#36687] | 96.1 |
| CN(C)CCCN(C)c1ccc2c(c1)-c1nc3cc(C(=O)NCCCN4CCCC4=O)ccc3n1[C@@H](Cc1ccc(Cl)cc1)C(=O)N2 [6000#46455] | 96.8 |
| CN(C)CCCNc1ccc2c(c1)-c1nc3cc(Br)ccc3n1C(CCCCNC(=O)C(F)(F)F)C(=O)N2 (stereo not shown) [6000#56687] | 96.8 |
| CCOC(=O)N1CCN(c2ccc3c(c2)-c2nc4ccccc4n2C(CCCNC(=N)N)C(=O)N3)CC1 (stereo not shown) [6000#60826] | 95 |
| CC(=O)N1CCN(c2ccc3c(c2)-c2nc4cc(Br)ccc4n2C(CCCNC(=N)N)C(=O)N3)CC1 (stereo not shown) [6000#60754] | 97.3 |
| O=C1Cn2c(nc3ccc(Cl)cc32)-c2cc(NC3CCCCCC3)ccc2N1 [6000#04048] | 95 |
| CN(C)CCCN(C)c1ccc2c(c1)-c1nc3cc(Br)ccc3n1C(CCCCNC(=O)C(F)(F)F)C(=O)N2 (stereo not shown) [6000#56695] | 95.8 |
| CC(=O)NC1CCN(C(=O)c2ccc3c(c2)nc2n3C(CCCNC(=N)N)C(=O)Nc3ccc(N4CCSCC4)cc3-2)C1 (stereo not shown) [6000#59355] | 97.2 |
| CN(C)CCCN(C)c1ccc2c(c1)-c1nc3cc(C(=O)N4CCC(C(N)=O)CC4)ccc3n1[C@@H](CC1CCCCC1)C(=O)N2 [6000#38375] | 95.1 |
| CCOC(=O)CCNC(=O)c1ccc2c(c1)nc1n2[C@@H](Cc2ccc(Cl)cc2)C(=O)Nc2ccc(N(C)CCN(C)C)cc2-1 [6000#45135] | 97.8 |
| CN(C)CCN(C)c1ccc2c(c1)-c1nc3ccccc3n1[C@H](Cc1ccccc1)C(=O)N2 [6000#36335] | 100 |
| CN(CCc1ccccc1)c1ccc2c(c1)-c1nc3cc(C(=O)NC4CC(C)(C)NC(C)(C)C4)ccc3n1[C@@H](CCC(N)=O)C(=O)N2 [6000#17560] | 98.6 |
| CCOC(=O)C1CCCN(C(=O)c2ccc3c(c2)nc2n3C(CCCNC(=N)N)C(=O)Nc3ccc(N4CCCC(C(=O)OCC)C4)cc3-2)C1 (stereo not shown) [6000#58437] | 100 |
| CCOC(=O)C1CCN(c2ccc3c(c2)-c2nc4cc(C(=O)N5CCC(NC(C)=O)C5)ccc4n2C(CCCNC(=N)N)C(=O)N3)CC1 (stereo not shown) [6000#59325] | 95.2 |
| CCOC(=O)C1CCN(c2ccc3c(c2)-c2nc4cc(C(=O)N5CCCC(C(=O)OCC)C5)ccc4n2C(CCCNC(=N)N)C(=O)N3)CC1 (stereo not shown) [6000#58445] | 97 |
| CCN1CCCC1CNC(=O)c1ccc2c(c1)nc1n2CC(=O)Nc2ccc(NCCN3CCOCC3)cc2-1 (stereo not shown) [6000#00002] | 96.3 |
| CN(C)CCCN(C)c1ccc2c(c1)-c1nc3cc(C(=O)NCCN4CCOCC4)ccc3n1[C@@H](CC1CCCCC1)C(=O)N2 [6000#39255] | 95.2 |
| CC1(C)CC(NC(=O)c2ccc3c(c2)nc2n3[C@@H](CCC(N)=O)C(=O)Nc3ccc(NCc4cccc(C(F)(F)F)c4)cc3-2)CC(C)(C)N1 [6000#17584] | 97.2 |

| Structure (SMILES) | inhibition at 170 µg/mL [%] |
| --- | --- |
| CCOC(=O)C1CCCN(C(=O)c2ccc3c(c2)nc2n3C(CCCNC(=N)N)C(=O)Nc3ccc(N(C)CCc4ccccn4)cc3-2)C1 (stereo not shown) [6000#58414] | 98 |
| CCOC(=O)N1CCN(C(=O)c2ccc3c(c2)nc2n3C(CCCNC(=N)N)C(=O)Nc3ccc(N4CCSCC4)cc3-2)CC1 (stereo not shown) [6000#59435] | 96.1 |
| CN(C)CCCN(C)c1ccc2c(c1)-c1nc3cc(C(F)(F)F)ccc3n1C(CCCCNC(=O)C(F)(F)F)C(=O)N2 (stereo not shown) [6000#56935] | 95.8 |
| CCOC(=O)C1CCN(c2ccc3c(c2)-c2nc4ccc(Cl)cc4n2C(CCCCNC(=O)C(F)(F)F)C(=O)N3)CC1 (stereo not shown) [6000#57085] | 96.7 |
| CCN1CCCC1CNC(=O)c1ccc2c(c1)nc1n2CC(=O)Nc2ccc(NCCN(C)C)cc2-1 (stereo not shown) [6000#00007] | 95.2 |
| CCN1CCCC1CNC(=O)c1ccc2c(c1)nc1n2CC(=O)Nc2ccc(NCCCN3CCOCC3)cc2-1 (stereo not shown) [6000#00010] | 95.7 |
| CC(=O)NCCNC(=O)c1ccc2c(c1)nc1n2[C@@H](Cc2ccc(Cl)cc2)C(=O)Nc2ccc(NCCCN3CCCCC3C)cc2-1 (stereo partly shown) [6000#47222] | 95.7 |
| CCCCNc1ccc2c(c1)-c1nc3cc(C(=O)NCCO)ccc3n1C(CCCNC(=N)N)C(=O)N2 (stereo not shown) [6000#58223] | 97 |
| N=C(N)NCCCC1C(=O)Nc2ccc(N3CCSCC3)cc2-c2nc3ccccc3n21 (stereo not shown) [6000#60875] | 101 |
| CCOC(=O)C1CCCN(c2ccc3c(c2)-c2nc4cc(C(=O)N5CCC(NC(C)=O)C5)ccc4n2C(CCCNC(=N)N)C(=O)N3)C1 (stereo not shown) [6000#59317] | 96.6 |
| N=C(N)NCCCC1C(=O)Nc2ccc(N3CCOCC3)cc2-c2nc3cc(Br)ccc3n21 (stereo not shown) [6000#60794] | 97.3 |
| CCCCNc1ccc2c(c1)-c1nc3cc(C(=O)NCCCCCC(=O)OC)ccc3n1C(CCCNC(=N)N)C(=O)N2 (stereo not shown) [6000#57343] | 100 |
| COCCN(CCOC)C(=O)c1ccc2c(c1)nc1n2C(CCCNC(=N)N)C(=O)Nc2ccc(N(C)Cc3ccccc3)cc2-1 (stereo not shown) [6000#59152] | 97.2 |
| CCN(CC)c1ccc2c(c1)-c1nc3cc(C(=O)N4CCCC4)ccc3n1C(CCCNC(=N)N)C(=O)N2 (stereo not shown) [6000#57519] | 100 |
| CCOCCNc1ccc2c(c1)-c1nc3cc(C(=O)Nc4nccs4)ccc3n1C(CCCNC(=N)N)C(=O)N2 (stereo not shown) [6000#57258] | 96.9 |
| CN(C)CCN(C)c1ccc2c(c1)-c1nc3cc(Br)ccc3n1C(CCCNC(=N)N)C(=O)N2 (stereo not shown) [6000#60735] | 99.9 |
| CCOC(=O)CCNC(=O)c1ccc2c(c1)nc1n2C(CCCNC(=N)N)C(=O)Nc2ccc(NC3CCN(Cc4ccccc4)C3)cc2-1 (stereo not shown) [6000#57389] | 97.3 |
| CCN(CC)CCN(C)c1ccc2c(c1)-c1nc3cc(C(F)(F)F)ccc3n1C(CCCCNC(=O)C(F)(F)F)C(=O)N2 (stereo not shown) [6000#56919] | 95.8 |
| CN(C)CCN(C)c1ccc2c(c1)-c1nc3ccc(Cl)cc3n1[C@H](Cc1ccccc1)C(=O)N2 [6000#36655] | 96.8 |
| CCN(CC)c1ccc2c(c1)-c1nc3cc(C(=O)N(C)C4CCN(C)CC4)ccc3n1C(CCCNC(=N)N)C(=O)N2 (stereo not shown) [6000#57999] | 95.1 |

| Structure (SMILES) | inhibition at 170 µg/mL [%] |
| --- | --- |
| CN(C)CCN(C)c1ccc2c(c1)-c1nc3cc(Br)ccc3n1[C@@H](CCCCNC(=O)C(F)(F)F)C(=O)N2 [6000#56655] | 97.8 |
| CC1CCCCN1CCCNc1ccc2c(c1)-c1nc3ccc(Cl)cc3n1C(C)C(=O)N2 (stereo not shown) [6000#08102] | 95.1 |
| CCCCNc1ccc2c(c1)-c1nc3cc(C(=O)N4CCCC4)ccc3n1C(CCCNC(=N)N)C(=O)N2 (stereo not shown) [6000#57503] | 97.4 |
| CCOC(=O)N1CCN(C(=O)c2ccc3c(c2)nc2n3C(CCCNC(=N)N)C(=O)Nc3ccc(NCCCSC)cc3-2)CC1 (stereo not shown) [6000#59387] | 97.8 |
| CC(=O)NCCNc1ccc2c(c1)-c1nc3cc(Br)ccc3n1C(CCCNC(=N)N)C(=O)N2 (stereo not shown) [6000#60738] | 96.5 |
| CC(=O)NCCNC(=O)c1ccc2c(c1)nc1n2C(CCCNC(=N)N)C(=O)Nc2ccc(NCc3ccc(F)cc3)cc2-1 (stereo not shown) [6000#59512] | 98.7 |
| CCOC(=O)CCNC(=O)c1ccc2c(c1)nc1n2C(CCCNC(=N)N)C(=O)Nc2ccc(Sc3ccccn3)cc2-1 (stereo not shown) [6000#57425] | 97.8 |
| CCOCCNc1ccc2c(c1)-c1nc3cc(Br)ccc3n1C(CCCNC(=N)N)C(=O)N2 (stereo not shown) [6000#60778] | 98.8 |
| CN(C)CCCNc1ccc2c(c1)-c1nc3cc(C(F)(F)F)ccc3n1C(CCCCNC(=O)C(F)(F)F)C(=O)N2 (stereo not shown) [6000#56927] | 96.3 |
| Cn1cnnc1Sc1ccc2c(c1)-c1nc3ccccc3n1C(CCCNC(=N)N)C(=O)N2 (stereo not shown) [6000#60857] | 95.3 |
| CCOC(=O)C1CCCN(C(=O)c2ccc3c(c2)nc2n3C(CCCNC(=N)N)C(=O)Nc3ccc(N4CCSCC4)cc3-2)C1 (stereo not shown) [6000#58475] | 99.1 |
| CSCCCNC(=O)c1ccc2c(c1)nc1n2[C@@H](Cc2ccc(Cl)cc2)C(=O)Nc2ccc(N(C)CCCN(C)C)cc2-1 [6000#47335] | 96.2 |
| CCN1CCCC1CNc1ccc2c(c1)-c1nc3cc(C(F)(F)F)ccc3n1C(CCCCNC(=O)C(F)(F)F)C(=O)N2 (stereo not shown) [6000#56957] | 97.4 |
| CC1CC(Nc2ccc3c(c2)-c2nc4ccc(Cl)cc4n2CC(=O)N3)CC(C)(C)C1 (stereo not shown) [6000#04080] | 95.3 |
| COCCN(CCOC)C(=O)c1ccc2c(c1)nc1n2[C@@H](Cc2ccc(Cl)cc2)C(=O)Nc2ccc(N(C)CCN(C)C)cc2-1 [6000#46895] | 96.1 |
| CCOC(=O)N1CCN(C(=O)c2ccc3c(c2)nc2n3C(CCCNC(=N)N)C(=O)Nc3ccc(Sc4nc(C)cc(C)n4)cc3-2)CC1 (stereo not shown) [6000#59393] | 96.1 |
| COCCN(CCOC)C(=O)c1ccc2c(c1)nc1n2[C@@H](CC2CCCCC2)C(=O)Nc2ccc(N(C)CCN(C)C)cc2-1 [6000#38735] | 96.7 |
| CSCCCNC(=O)c1ccc2c(c1)nc1n2[C@@H](CC2CCCCC2)C(=O)Nc2ccc(N(C)CCN(C)C)cc2-1 [6000#39135] | 98.1 |
